This note sets out measurements from patent US20220411414A1, “INHIBITORS FOR THE B-CATENIN/B-CELL LYMPHOMA 9 (BCL9) PROTEIN-PROTEIN INTERACTION” (H. LEE MOFFITT CANCER CENTER AND RESEARCH INSTITUTE, INC., priority 2018, published 2022).

Where only a bound is given, the exact number is not on record here.

Assay [1] relates to SW480. Nature of the assay: MTs growth inhibition assay, SW480. The class given is cell-based. The following applies: Homo sapiens, Wnt/β-catenin-hyperactive, 72 h, read-out: MTs IC50 ± SD SW480. How it is done:
MTs cancer cell growth inhibition assays were conducted for 4 and 5. Three cancer cell lines with hyperactive Wnt/β-catenin signaling, SW480, HCT116, and MDA-MB-231. MTs cell viability assay. Colorectal cancer cell lines, SW480 and HCT116, and triple-negative breast cancer cell line MDA-MB-231 were seeded in 96-well plates at 4×10^3 cells/well, maintained overnight at 37° C., and incubated in the presence of 4 and 5 at various concentrations. Cell viability was monitored after 72 h using a freshly prepared mixture of 1 part phenazine methosulfate (PMS, Sigma) solution (0.92 mg/mL) and 19 parts 3-(4,5-dimethylthiazol-2-yl)-5-(3-carboxymethoxyphenyl)-2-(4-sulfophenyl)-2H-tetrazolium (MTs, Promega) solution (2 mg/mL). Cells were incubated in 10 μL of this solution at 37° C. for 3 h, and A490 was measured. The effect of each compound is expressed as the concentration required to reduce A490 by 50% (IC50) relative to vehicle-treated cells. Experiments were performed in triplicate.

Assay [2] has as its system TOPFlash (three wild-type Tcf binding sites) luciferase reporter. Nature of the assay: Wnt-responsive TOPFlash luciferase reporter assay, β-catenin-activated HEK239. The class given is cell-based. The following applies: 24 h treatment, read-out: TOPFlash IC50 ± SD β-catenin-activated HEK239. The protocol: The TOPFlash luciferase reporter assay (in which the luciferase reporter has three wild-type Tcf4 binding sites) was performed with 4 and 5. Cell transfection and luciferase assay. FuGENE6 (E269A, Promega) 96 well plate format was used for the transfection of HEK293 and SW480 cells according to the manufacturer's instruction. HEK293 cells were co-transfected with 45 ng of TOPFlash or FOPFlash reporter gene, 135 ng pcDNA3.1-β-catenin, and 20 ng of pCMV-RL normalization reporter gene. SW480 cells were co-transfected with 60 ng of the TOPFlash or FOPFlash reporter gene and 40 ng of pCMV-RL normalization reporter. Cells were cultured in DMEM and 10% FBS at 37° C. for 24 h, and different concentrations of inhibitors or DMSO was added. After 24 h, the luciferase reporter activity was measured using the Dual-Glo system (E2940, Promega). Normalized luciferase activity in response to the treatment with 4 and 5 was compared with that obtained from the cells treated with DMSO. Experiments were performed in triplicate.
A general note: In a reporter assay the amount or activity of a reporter protein is the signal.

For assay [3], the target named is T1, β-catenin/E-cadherin (Homo sapiens, UniProt P35222).
T1 construct: Full-length β-catenin and (residues 1-781) were cloned into a pET-28b vector carrying a C-terminal 6× histidine; made in house; host or cells: E. coli BL21 DE3
T1 sequence (P35222 1-781): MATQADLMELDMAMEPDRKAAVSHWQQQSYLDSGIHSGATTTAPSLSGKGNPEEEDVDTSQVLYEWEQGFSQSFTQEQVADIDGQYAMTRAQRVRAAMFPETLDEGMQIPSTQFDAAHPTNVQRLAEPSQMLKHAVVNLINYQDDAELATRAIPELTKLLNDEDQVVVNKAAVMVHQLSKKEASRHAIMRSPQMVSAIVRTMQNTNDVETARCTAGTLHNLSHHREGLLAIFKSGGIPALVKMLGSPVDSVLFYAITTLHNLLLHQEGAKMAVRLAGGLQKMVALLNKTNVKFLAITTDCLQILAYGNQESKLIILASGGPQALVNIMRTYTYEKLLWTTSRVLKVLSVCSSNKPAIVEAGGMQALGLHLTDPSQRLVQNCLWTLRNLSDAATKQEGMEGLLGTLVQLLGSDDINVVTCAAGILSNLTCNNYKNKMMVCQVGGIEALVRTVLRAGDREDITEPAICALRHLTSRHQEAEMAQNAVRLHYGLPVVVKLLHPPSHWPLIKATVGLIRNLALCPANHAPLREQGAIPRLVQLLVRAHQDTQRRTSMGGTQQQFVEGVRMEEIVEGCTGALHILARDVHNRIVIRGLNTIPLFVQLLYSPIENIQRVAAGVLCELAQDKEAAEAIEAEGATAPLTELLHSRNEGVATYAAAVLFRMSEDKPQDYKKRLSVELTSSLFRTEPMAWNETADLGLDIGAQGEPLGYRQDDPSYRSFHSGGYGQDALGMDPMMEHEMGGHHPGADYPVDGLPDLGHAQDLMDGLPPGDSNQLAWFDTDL
Nature of the assay: AlphaScreen selectivity assay, β-catenin/E-cadherin PPI. As to conditions: Table 2, read-out: Ki ± SD β-catenin/E-cadherin. The assay is classed as binding. From the text:
Compounds 4 and 5 were further evaluated with their selectivities for the disruption of β-catenin/BCL9 over β-catenin/E-cadherin interactions using the AlphaScreen selectivity assay (Zhang, M.; Wisniewski, J. A.; Ji, H AlphaScreen selectivity assay for, β-catenin/B-cell lymphoma 9 inhibitors. Anal. Biochen. 2015, 469, 43-53.).
BCL9 peptide synthesis and purification. Human BCL9 (residues 350-375), N-terminally biotinylated human BCL9 (residues 350-375), human E-cadherin (residues 824-877), and N-terminally biotinylated human E-cadherin (residues 824-877) were synthesized by InnoPep Inc. (San Diego, Calif., www.innopep.com). All synthesized peptides were purified by HPLC with purity >95%. […]
For the β-catenin/BCL9 assay, 5 nM of biotinylated BCL9 and 40 nM of His6-tagged β-catenin were incubated in assay buffer at 4° C. for 30 min. […] The IC50 value was determined by nonlinear least-square analysis of GraphPad Prism 5.0. The inhibition constant (Ki) values were derived from the IC50 values using a method reported by Nikolovska-Coleska et al (Nikolovska-Coleska, Z.; Wang, R.; Fang, X.; Pan, H.; Tomita, Y.; Li, P.; Roller, P. P.; Krajewski, K.; Saito, N. G.; Stuckey, J. A.; Wang, S. Development and optimization of a binding assay for the XIAP BIR3 domain using fluorescence polarization, Anal. Biochem. 2004, 332, 261-273.). […] The results were expressed as mean±standard deviation. […]
For orientation: Bead proximity is the source of the signal in Alpha formats.

Broadly, the IC50 is the concentration at which inhibition is half-maximal.

With `Cl.Cl.O=C(Nc1ccc(O[C@@H]2CCNC2)c(-c2cccc(-c3nn[nH]n3)c2)c1)c1ccc(O[C@H]2CCNC2)c(-c2ccc(F)c(F)c2)c1` [Compound 4, 3′,4′-difluoro-6-(((S)-pyrrolidin-3-yl)oxy)-N-(6-(((R)-pyrrolidin-3-yl)oxy)-3′-(2H-tetrazol-5-yl)-[1,1′-biphenyl]-3-yl)-[1,1′-biphenyl]-3-carboxamide dihydrochloride], the IC50 in assay [1] amounted to 41 ± 6.2 µM; in assay [2], 25 ± 4.1 µM. The Ki in assay [3] is above 915 µM.
